From patent US11952330B2, “Antibiotic ammonium compounds and methods for the treatment of bacterial infections” (priority 2019, dated 2024)

How the values were obtained:
S. aureus = assay: MIC by broth dilution, S. aureus; format: cell-based; conditions: Staphylococcus aureus; Mueller-Hinton broth, overnight 37° C.; Table 1; read-out: MIC (μg/mL) S. aureus
Protocol: (§1) The antibacterial efficacy of the ammonium compounds was assessed. Minimum inhibitory concentrations (MICs) were determined by broth dilution method. Dilutions of each compound, ranging from 1 μg/mL to 256 μg/mL (final concentrations) were prepared in Mueller-Hinton broth. Compound dilutions were added to wells of a 96-well plate, with the concentration of the compound increasing 2-fold by row. Each well contained 5×10^5 CFU/ml of target bacterium in a total volume of 100 μl. Plates were incubated overnight at 37° C. The following day, plates were evaluated for a visual change in growth to determine the MIC. The concentration value corresponding to the first row that no longer had visible bacterial growth, as evaluated by turbidity in the wells, was recorded as the MIC. MIC values were representative of at least biological duplicates, each made up of technical triplicates. The antibacterial efficacy of ammonium compounds in the presence of human plasma was assessed. Minimum inhibitory concentrations (MICs) were determined by broth dilution method. Dilutions of each compound, ranging from 1 μg/mL to 256 μg/mL (final concentrations) were prepared in Mueller-Hinton broth. For the plasma containing samples, compound dilutions were made in Mueller-Hinton broth and supplemented with 5% (final %) human plasma (esterases). Compound dilutions were added to wells of a 96-well plate, with the concentration of the compound increasing 2-fold by row. Each well contained 5×10^5 CFU/mL of target bacterium in a total volume of 100 μL. Plates were incubated overnight at 37° C. The following day, plates were evaluated for a visual change in growth to determine the MIC. The concentration value corresponding to the first row that no longer had visible bacterial growth, as evaluated by turbidity in the wells, was recorded as the MIC. MIC values were representative of at least biological duplicates, each made up of technical triplicates.

A. baumannii = assay: MIC by broth dilution, A. baumannii; format: cell-based; conditions: Acinetobacter baumannii; Mueller-Hinton broth, overnight 37° C.; Table 1; read-out: MIC (μg/mL) A. baumannii
Protocol: as §1

Structure (SMILES)	MIC (S. aureus)	MIC (A. baumannii)
CCCCCCCCOc1ccccc1C(=O)Nc1ccc(C(=O)OCC[N+](CC)(CC)Cc2ccc(C(F)(F)F)cc2)cc1.[Br-] [Compound 41, N,N-Diethyl-2-((4-(2-(octyloxy)benzamido)benzoyl)oxy)-N-(4-(trifluoromethyl)-benzyl)ethan-1-aminium bromide]	< 3 µg/mL	> 30 µg/mL
CCCCCCCCOc1ccccc1C(=O)Nc1ccc(C(=O)OCC[N+](CC)(CC)Cc2cccc(F)c2)cc1.[Br-] [Compound 42, N,N-Diethyl-N-(3-fluorobenzyl)-2-((4-(2-(octyloxy)benzamido)benzoyl)oxy)ethan-1-aminium bromide]	< 3 µg/mL	3 to 30 µg/mL
CCCCCCCCOc1ccccc1C(=O)Nc1ccc(C(=O)OCC[N+](CC)(CC)Cc2cccc(F)c2F)cc1.[Br-] [Compound 43, N,N-Diethyl-N-(2,3-difluorobenzyl)-2-((4-(2-(octyloxy)benzamido)benzoyl)oxy)-ethan-1-aminium bromide]	< 3 µg/mL	3 to 30 µg/mL
CCCCCCCCOc1ccccc1C(=O)Nc1ccc(C(=O)OCC[N+](CC)(CC)CCCCc2ccccc2)cc1.[Br-] [Compound 44, N,N-Diethyl-N-(2-((4-(2-(octyloxy)benzamido)benzoyl)oxy)ethyl)-4-phenylbutan-1-aminium bromide]	< 3 µg/mL	3 to 30 µg/mL
CCCCCCCCOc1ccccc1C(=O)Nc1ccc(C(=O)OCCC[N+](C)(CC)CC)cc1.[I-] [Compound 45, N,N-Diethyl-N-methyl-3-((4-(2-(octyloxy)benzamido)benzoyl)oxy)propan-1-aminium iodide]	3 to 30 µg/mL	3 to 30 µg/mL
CCCCCCCCOc1ccccc1C(=O)Nc1ccc(C(=O)OCCCC[N+](C)(C)C)cc1.[I-] [Compound 46, N,N,N-Trimethyl-4-((4-(2-(octyloxy)benzamido)benzoyl)oxy)butan-1-aminium iodide]	3 to 30 µg/mL	> 30 µg/mL
CCCCCCCCOc1ccccc1C(=O)Nc1ccc(C(=O)OCC[N+](CC)(CC)CCC(C)(C)C)cc1.[Br-] [Compound 47, N,N-Diethyl-3,3-dimethyl-N-(2-((4-(2-(octyloxy)benzamido)benzoyl)oxy)ethyl)-butan-1-aminium bromide]	< 3 µg/mL	3 to 30 µg/mL
CCCCCCCCCC[N+](CC)(CC)CCOC(=O)c1ccc(NC(=O)c2ccccc2OCCCCCCCC)cc1.[Br-] [Compound 48, N,N-Diethyl-N-(2-((4-(2-(octyloxy)benzamido)benzoyl)oxy)ethyl)decan-1-aminium bromide]	< 3 µg/mL	> 30 µg/mL
CCCCCCCCCCC[N+](CC)(CC)CCOC(=O)c1ccc(NC(=O)c2ccccc2OCCCCCCCC)cc1.[Br-] [Compound 49, N,N-Diethyl-N-(2-((4-(2-(octyloxy)benzamido)benzoyl)oxy)ethyl)undecan-1-aminium bromide]	< 3 µg/mL	> 30 µg/mL
CCCCCCCCOc1ccccc1C(=O)Nc1ccc(C(=O)OCC[N+](CC)(CC)Cc2cccc(OC)c2)cc1.[Br-] [Compound 50, N,N-Diethyl-N-(3-methoxybenzyl)-2-((4-(2-(octyloxy)benzamido)benzoyl)oxy)-ethan-1-aminium bromide]	< 3 µg/mL	3 to 30 µg/mL
CCCCCCCCOc1ccccc1C(=O)Nc1ccc(C(=O)OCC[N+](CC)(CC)Cc2ccc(C(=O)OC)cc2)cc1.[Br-] [Compound 51, N,N-Diethyl-N-(4-(methoxycarbonyl)benzyl)-2-((4-(2-(octyloxy)benzamido)-benzoyl)oxy)ethan-1-aminium bromide]	< 3 µg/mL	> 30 µg/mL
CCCCCCCCOc1ccccc1C(=O)Nc1ccc(C(=O)OCC[N+]2(C)CCCC2)cc1.[Br-] [Compound 52, 1-Methyl-1-(2-((4-(2-(octyloxy)benzamido)benzoyl)oxy)ethyl)pyrrolidin-1-ium bromide]	3 to 30 µg/mL	> 30 µg/mL
CCCCCCCCOc1ccccc1C(=O)Nc1ccc(C(=O)OC2CC[N+](C)(CC)CC2)cc1.[Br-] (stereo not shown) [Compound 53, 1-Ethyl-1-methyl-4-((4-(2-(octyloxy)benzamido)benzoyl)oxy)piperidin-1-ium bromide]	3 to 30 µg/mL	> 30 µg/mL
CCCCCCCCOc1ccccc1C(=O)Nc1ccc(C(=O)N2CC[N+](C)(CC)CC2)cc1.[Br-] [Compound 54, 1-Ethyl-1-methyl-4-(4-(2-(octyloxy)benzamido)benzoyl)piperazin-1-ium bromide]	> 30 µg/mL	> 30 µg/mL
CCCCCCCCOc1ccccc1C(=O)Nc1ccc(C(=O)N(C)CC[N+](C)(CC)CC)cc1.[Br-] [Compound 55, N,N-Diethyl-N-methyl-2-(N-methyl-4-(2-(octyloxy)benzamido)benzamido)ethan-1-aminium bromide]	> 30 µg/mL	> 30 µg/mL
CCCCCCCCOc1ccccc1C(=O)Nc1ccc(C(=O)OCC[N+]2(CCC)CCCC2)cc1.[Br-] [Compound 56, 1-(2-((4-(2-(Octyloxy)benzamido)benzoyl)oxy)ethyl)-1-propylpyrrolidin-1-ium bromide]	< 3 µg/mL	3 to 30 µg/mL
CCCCCCCCOc1ccccc1C(=O)Nc1ccc(C(=O)OC2CC[N+](CC)(CCC)CC2)cc1.[Br-] (stereo not shown) [Compound 57, 1-Ethyl-4-((4-(2-(octyloxy)benzamido)benzoyl)oxy)-1-propylpiperidin-1-ium bromide]	3 to 30 µg/mL	3 to 30 µg/mL
CCCCCCCCOc1ccccc1C(=O)Nc1ccc(C(=O)N(C)CC[N+](CC)(CC)CCC)cc1.[Br-] [Compound 59, N,N-Diethyl-N-(2-(N-methyl-4-(2-(octyloxy)benzamido)benzamido)ethyl)propan-1-aminium bromide]	3 to 30 µg/mL	> 30 µg/mL
CCCCCCCCOc1ccccc1C(=O)Nc1ccc(C(=O)OCC[N+](CC)(CC)CC2CC2)cc1.[Br-] [Compound 60, N-(Cyclopropylmethyl)-N,N-diethyl-2-((4-(2-(octyloxy)benzamido)benzoyl)oxy)-ethan-1-aminium bromide]	3 to 30 µg/mL	3 to 30 µg/mL
CCCCCCCCOc1ccccc1C(=O)Nc1ccc(C(=O)OCC[N+](CC)(CC)CC2CCCC2)cc1.[Br-] [Compound 61, N-(Cyclopentylmethyl)-N,N-diethyl-2-((4-(2-(octyloxy)benzamido)benzoyl)oxy)-ethan-1-aminium bromide]	< 3 µg/mL	3 to 30 µg/mL
CCCCCCCCOc1ccccc1C(=O)Nc1ccc(C(=O)OCC[N+](CC)(CC)CC2CCCCC2)cc1.[Br-] [Compound 62, N-(Cyclohexylmethyl)-N,N-diethyl-2-((4-(2-(octyloxy)benzamido)benzoyl)oxy)-ethan-1-aminium bromide]	< 3 µg/mL	3 to 30 µg/mL
CCCCCCCCOc1ccccc1C(=O)Nc1ccc(C(=O)OCC[N+](CC)(CC)CCC(C)C)cc1.[Br-] [Compound 63, N,N-Diethyl-3-methyl-N-(2-((4-(2-(octyloxy)benzamido)benzoyl)oxy)ethyl)butan-1-aminium bromide]	< 3 µg/mL	3 to 30 µg/mL
CCCCCOc1ccccc1C(=O)Nc1ccc(C(=O)OCC[N+](CC)(CC)CCC)cc1.[Br-] [Compound 64, N,N-Diethyl-N-(2-((4-(2-(pentyloxy)benzamido)benzoyl)oxy)ethyl)propan-1-aminium bromide]	3 to 30 µg/mL	> 30 µg/mL
CCCCCOc1ccccc1C(=O)Nc1ccc(C(=O)OCC[N+](CC)(CC)CCCCC)cc1.[Br-] [Compound 65, N,N-Diethyl-N-(2-((4-(2-(pentyloxy)benzamido)benzoyl)oxy)ethyl)pentan-1-aminium bromide]	3 to 30 µg/mL	> 30 µg/mL
CCCCCCOc1ccccc1C(=O)Nc1ccc(C(=O)OCC[N+](CC)(CC)CCC)cc1.[Br-] [Compound 66, N,N-Diethyl-N-(2-((4-(2-(hexyloxy)benzamido)benzoyl)oxy)ethyl)propan-1-aminium bromide]	3 to 30 µg/mL	> 30 µg/mL
CCCCCCOc1ccccc1C(=O)Nc1ccc(C(=O)OCC[N+](CC)(CC)CCCC)cc1.[Br-] [Compound 67, N,N-Diethyl-N-(2-((4-(2-(hexyloxy)benzamido)benzoyl)oxy)ethyl)butan-1-aminium bromide]	3 to 30 µg/mL	> 30 µg/mL
CCCCCCCOc1ccccc1C(=O)Nc1ccc(C(=O)OCC[N+](CC)(CC)CCC)cc1.[Br-] [Compound 69, N,N-Diethyl-N-(2-((4-(2-(heptyloxy)benzamido)benzoyl)oxy)ethyl)propan-1-aminium bromide]	3 to 30 µg/mL	> 30 µg/mL
CCCCCCCOc1ccccc1C(=O)Nc1ccc(C(=O)OCC[N+](CC)(CC)CCCC)cc1.[Br-] [Compound 70, N,N-Diethyl-N-(2-((4-(2-(heptyloxy)benzamido)benzoyl)oxy)ethyl)butan-1-aminium bromide]	< 3 µg/mL	3 to 30 µg/mL
CCCCCCCOc1ccccc1C(=O)Nc1ccc(C(=O)OCC[N+](CC)(CC)CCCCC)cc1.[Br-] [Compound 71, N,N-Diethyl-N-(2-((4-(2-(heptyloxy)benzamido)benzoyl)oxy)ethyl)pentan-1-aminium bromide]	< 3 µg/mL	3 to 30 µg/mL
